Experimental data taken from patent US12077503B2, “Substituted cyclic amides and their use as herbicides” (FMC CORPORATION, priority 2015, dated 2024).

Assays:
Format in all cases: in vivo
[1] = tested on: Kochia (Kochia scoparia); test: Test A preemergence
In short: (§1)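 Ratings of 0 (no effect) to 100 (complete control) come from visual comparison with untreated controls roughly 10 d after treatment. Test chemicals, formulated in a non-phytotoxic solvent mixture with surfactant, were applied either as a preemergence directed soil spray on seeded soil or postemergence to one- to two-leaf plants 2 to 10 cm tall.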

[2] = tested on: barnyardgrass (Echinochloa crus-galli); test: Test A preemergence
In short: as §1

[3] = tested on: giant foxtail (Setaria faberii); test: Test A preemergence
In short: as §1

[4] = tested on: pigweed (Amaranthus retroflexus); test: Test A preemergence
[5] = tested on: ragweed (common ragweed, Ambrosia elatior); test: Test A preemergence
In short: as §1

[6] = tested on: ryegrass, Italian (Italian ryegrass, Lolium multiflorum); test: Test A preemergence
In short: as §1

[7] = tested on: Galium (catchweed bedstraw, Galium aparine); test: Test A postemergence
In short: as §1

[8] = tested on: Kochia (Kochia scoparia); test: Test A postemergence
In short: as §1

[9] = tested on: barnyardgrass (Echinochloa crus-galli); test: Test A postemergence
In short: as §1

[10] = tested on: blackgrass (Alopecurus myosuroides); test: Test A postemergence
In short: as §1

[11] = tested on: corn (Zea mays); test: Test A postemergence
In short: as §1

[12] = tested on: giant foxtail (Setaria faberii); test: Test A postemergence
In short: as §1

[13] = tested on: pigweed (Amaranthus retroflexus); test: Test A postemergence
In short: as §1

[14] = tested on: ragweed (common ragweed, Ambrosia elatior); test: Test A postemergence
In short: as §1

[15] = tested on: ryegrass, Italian (Italian ryegrass, Lolium multiflorum); test: Test A postemergence
In short: as §1

[16] = tested on: wheat (Triticum aestivum); test: Test A postemergence
In short: as §1

[17] = tested on: barnyardgrass (Echinochloa crus-galli); test: Test B flooded paddy test; details: Flood, 250 g ai/ha; 0 to 100 scale where 0 is no effect and 100 is complete control; 13 to 15 d
In short: (§2)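 Rating scale 0–100 (visual, vs untreated controls) after a 13–15 d greenhouse period; application to the flood layer, 3 cm above soil and maintained; plants at 2-leaf stage when treated.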

[18] = tested on: ducksalad (Heteranthera limosa); test: Test B flooded paddy test; details: Flood, 250 g ai/ha; 0 to 100 scale where 0 is no effect and 100 is complete control; 13 to 15 d
In short: as §2

[19] = tested on: rice (Oryra sativa); test: Test B flooded paddy test; details: Flood, 250 g ai/ha; 0 to 100 scale where 0 is no effect and 100 is complete control; 13 to 15 d
In short: as §2

[20] = tested on: sedge, umbrella (small-flower umbrella sedge, Cyperus difformis); test: Test B flooded paddy test; details: Flood, 250 g ai/ha; 0 to 100 scale where 0 is no effect and 100 is complete control; 13 to 15 d
In short: as §2

[21] = 125 g ai/ha, Preemergence, visual injury after approximately 10 d, 0 to 100 scale where 0 is no effect and 100 is complete control
[22] = 500 g ai/ha, preemergence, 0 to 100 scale, 0 = no effect, 100 = complete control
[23] = 125 g ai/ha, postemergence, visual rating after approx. 10 d, 0 to 100 scale (0 no effect, 100 complete control)
[24] = 500 g ai/ha, postemergence, visual injury, 0 to 100 scale (0 no effect, 100 complete control), approx. 10 d
[25] = 125 g ai/ha, preemergence, 0 to 100 scale (0 no effect, 100 complete control)
[26] = Preemergence, 500 g ai/ha, 0 is no effect, 100 is complete control
[27] = 500 g ai/ha, postemergence, 0 to 100 scale, 0 no effect, 100 complete control
[28] = Postemergence, 125 g ai/ha, visual injury, 0 to 100 scale (0 no effect, 100 complete control), approx. 10 d
[29] = Preemergence, 500 g ai/ha, visual injury approx. 10 d
[30] = 125 g ai/ha, postemergence, visual injury rating on 0 to 100 scale (0 no effect, 100 complete control), approx. 10 d

Structure (SMILES): Cc1ccc(C2CNC(=O)C2C(=O)Nc2cccc(F)c2F)cc1C(F)(F)F (racemic) [Compound 679]
- Plant response rating, Kochia [1, 21]: 30
- Plant response rating, Kochia [1, 22]: 60
- Plant response rating, Barnyardgrass [2, 21]: 80
- Plant response rating, Barnyardgrass [2, 22]: 90
- Plant response rating, Foxtail, Giant [3, 21]: 90
- Plant response rating, Foxtail, Giant [3, 22]: 90
- Plant response rating, Pigweed [4, 21]: 0
- Plant response rating, Pigweed [4, 22]: 40
- Plant response rating, Ragweed [5, 21]: 0
- Plant response rating, Ragweed [5, 22]: 30
- Plant response rating, Ryegrass, Italian [6, 21]: 20
- Plant response rating, Ryegrass, Italian [6, 22]: 30
- Plant response rating, Galium [7, 23]: 40
- Plant response rating, Galium [7, 24]: 60
- Plant response rating, Kochia [8, 23]: 0
- Plant response rating, Kochia [8, 24]: 0
- Plant response rating, Barnyardgrass [9, 23]: 40
- Plant response rating, Barnyardgrass [9, 24]: 70
- Plant response rating, Blackgrass [10, 23]: 30
- Plant response rating, Blackgrass [10, 24]: 60
- Plant response rating, Corn [11, 23]: 20
- Plant response rating, Corn [11, 24]: 50
- Plant response rating, Foxtail, Giant [12, 23]: 0
- Plant response rating, Foxtail, Giant [12, 24]: 30
- Plant response rating, Pigweed [13, 23]: 0
- Plant response rating, Pigweed [13, 24]: 40
- Plant response rating, Ragweed [14, 23]: 0
- Plant response rating, Ragweed [14, 24]: 20
- Plant response rating, Ryegrass, Italian [15, 23]: 0
- Plant response rating, Ryegrass, Italian [15, 24]: 20
- Plant response rating, Wheat [16, 23]: 0
- Plant response rating, Wheat [16, 24]: 20
- Plant response rating, Barnyardgrass [17]: 30
- Plant response rating, Ducksalad [18]: 55
- Plant response rating, Rice [19]: 0
- Plant response rating, Sedge, Umbrella [20]: 0

Structure (SMILES): Cc1cccc(C2CNC(=O)C2C(=O)Nc2cccc(F)c2F)c1 (racemic) [Compound 373]
- Plant response rating, Kochia [1, 25]: 0
- Kochia plant response rating (0 to 100 scale) [1, 26]: 30
- Plant response rating, Barnyardgrass [2, 25]: 90
- Barnyardgrass plant response rating (0 to 100 scale) [2, 26]: 90
- Plant response rating, Foxtail, Giant [3, 25]: 80
- Foxtail, Giant plant response rating (0 to 100 scale) [3, 26]: 90
- Plant response rating, Pigweed [4, 25]: 0
- Pigweed plant response rating (0 to 100 scale) [4, 26]: 20
- Plant response rating, Ragweed [5, 25]: 0
- Ragweed plant response rating (0 to 100 scale) [5, 26]: 30
- Plant response rating, Ryegrass, Italian [6, 25]: 30
- Ryegrass, Italian plant response rating (0 to 100 scale) [6, 26]: 40
- Plant response rating, Galium [7, 27]: 30
- Plant response rating, Galium [7, 28]: 30
- Plant response rating, Kochia [8, 27]: 40
- Plant response rating, Kochia [8, 28]: 0
- Plant response rating, Barnyardgrass [9, 27]: 80
- Plant response rating, Barnyardgrass [9, 28]: 80
- Plant response rating, Blackgrass [10, 27]: 40
- Plant response rating, Blackgrass [10, 28]: 20
- Plant response rating, Corn [11, 27]: 50
- Plant response rating, Corn [11, 28]: 20
- Plant response rating, Foxtail, Giant [12, 27]: 70
- Plant response rating, Foxtail, Giant [12, 28]: 40
- Plant response rating, Pigweed [13, 27]: 30
- Plant response rating, Pigweed [13, 28]: 20
- Plant response rating, Ragweed [14, 27]: 0
- Plant response rating, Ragweed [14, 28]: 0
- Plant response rating, Ryegrass, Italian [15, 27]: 20
- Plant response rating, Ryegrass, Italian [15, 28]: 30
- Plant response rating, Wheat [16, 27]: 70
- Plant response rating, Wheat [16, 28]: 20
- Plant response rating, Barnyardgrass [17]: 60
- Plant response rating, Ducksalad [18]: 100
- Plant response rating, Rice [19]: 20
- Plant response rating, Sedge, Umbrella [20]: 0

Structure (SMILES): O=C1NCC(c2ccc(Br)cc2)C1C(=O)Nc1cccc(F)c1 (stereo not drawn) [Compound 449]
- Plant response rating, Kochia [1, 25]: 20
- Kochia plant response rating (0 to 100 scale, 0 is no effect, 100 is complete control) [1, 29]: 40
- Plant response rating, Barnyardgrass [2, 25]: 50
- Barnyardgrass plant response rating (0 to 100 scale, 0 is no effect, 100 is complete control) [2, 29]: 90
- Plant response rating, Foxtail, Giant [3, 25]: 80
- Foxtail, Giant plant response rating (0 to 100 scale, 0 is no effect, 100 is complete control) [3, 29]: 90
- Plant response rating, Pigweed [4, 25]: 0
- Pigweed plant response rating (0 to 100 scale, 0 is no effect, 100 is complete control) [4, 29]: 20
- Plant response rating, Ragweed [5, 25]: 0
- Ragweed plant response rating (0 to 100 scale, 0 is no effect, 100 is complete control) [5, 29]: 0
- Plant response rating, Ryegrass, Italian [6, 25]: 20
- Ryegrass, Italian plant response rating (0 to 100 scale, 0 is no effect, 100 is complete control) [6, 29]: 0
- Galium plant response rating [7, 30]: 0
- Plant response rating, Galium [7, 27]: 50
- Kochia plant response rating [8, 30]: 20
- Plant response rating, Kochia [8, 27]: 40
- Barnyardgrass plant response rating [9, 30]: 30
- Plant response rating, Barnyardgrass [9, 27]: 80
- Blackgrass plant response rating [10, 30]: 0
- Plant response rating, Blackgrass [10, 27]: 20
- Corn plant response rating [11, 30]: 0
- Plant response rating, Corn [11, 27]: 0
- Foxtail, Giant plant response rating [12, 30]: 30
- Plant response rating, Foxtail, Giant [12, 27]: 80
- Pigweed plant response rating [13, 30]: 0
- Plant response rating, Pigweed [13, 27]: 20
- Ragweed plant response rating [14, 30]: 0
- Plant response rating, Ragweed [14, 27]: 0
- Ryegrass, Italian plant response rating [15, 30]: 0
- Plant response rating, Ryegrass, Italian [15, 27]: 20
- Wheat plant response rating [16, 30]: 0
- Plant response rating, Wheat [16, 27]: 0
- Plant response rating, Barnyardgrass [17]: 40
- Plant response rating, Ducksalad [18]: 98
- Plant response rating, Rice [19]: 0
- Plant response rating, Sedge, Umbrella [20]: 0
